Numbers after ± are expanded uncertainties.
Conditions: Liquid

CCCCCl [1-chlorobutane]
mass density [kg/m3]
Conditions	288.15 K	298.15 K	308.15 K	318.15 K
100 kPa	891.8 ± 0.2	880.6 ± 0.3	870 ± 0.3	859.1 ± 0.3
2000 kPa	893.6 ± 0.3	882.6 ± 0.3	872.1 ± 0.3	861.5 ± 0.3
4000 kPa	–	–	–	863.8 ± 0.3
4100 kPa	895.6 ± 0.3	884.9 ± 0.3	874.4 ± 0.3	–
6100 kPa	897.5 ± 0.3	886.8 ± 0.3	876.5 ± 0.3	866.3 ± 0.3
8100 kPa	899.4 ± 0.3	888.7 ± 0.3	878.6 ± 0.3	868.7 ± 0.3
10100 kPa	901.3 ± 0.3	890.9 ± 0.3	880.8 ± 0.3	870.9 ± 0.3
12100 kPa	903 ± 0.3	892.8 ± 0.3	882.9 ± 0.3	873.1 ± 0.3
14100 kPa	904.9 ± 0.3	–	–	875.1 ± 0.3
14200 kPa	–	894.7 ± 0.3	884.9 ± 0.3	–
16200 kPa	–	896.5 ± 0.3	886.8 ± 0.3	877.2 ± 0.4
16300 kPa	906.7 ± 0.3	–	–	–
18300 kPa	–	898.5 ± 0.3	888.8 ± 0.4	–
18400 kPa	908.5 ± 0.3	–	–	879.3 ± 0.4
20200 kPa	910.3 ± 0.3	–	890.6 ± 0.4	881.2 ± 0.4
20400 kPa	–	900.2 ± 0.3	–	–

CCCCCCCl [1-chlorohexane]
Conditions	mass density [kg/m3]
288.15 K, 100 kPa	882.7 ± 0.6
288.15 K, 2000 kPa	884.4 ± 0.7
288.15 K, 4100 kPa	886 ± 0.7
288.15 K, 5900 kPa	887.5 ± 0.8
288.15 K, 8100 kPa	889.2 ± 0.8
288.15 K, 10100 kPa	890.7 ± 0.9
288.15 K, 12200 kPa	892.3 ± 0.9
288.15 K, 14200 kPa	893.8 ± 0.9
288.15 K, 16200 kPa	895.2 ± 1
288.15 K, 18200 kPa	896.7 ± 1
288.15 K, 20200 kPa	898.3 ± 1.1
298.15 K, 100 kPa	873.1 ± 0.6
298.15 K, 2000 kPa	874.8 ± 0.7
298.15 K, 4100 kPa	876.6 ± 0.7
298.15 K, 6100 kPa	878.3 ± 0.8
298.15 K, 8100 kPa	879.9 ± 0.8
298.15 K, 10200 kPa	881.7 ± 0.9
298.15 K, 12100 kPa	883.3 ± 0.9
298.15 K, 14200 kPa	885 ± 1
298.15 K, 16400 kPa	886.6 ± 1
298.15 K, 18400 kPa	888.1 ± 1.1
298.15 K, 20200 kPa	889.6 ± 1.1
308.15 K, 100 kPa	864.3 ± 0.7
308.15 K, 2000 kPa	866.1 ± 0.7
308.15 K, 4100 kPa	868 ± 0.8
308.15 K, 6100 kPa	869.7 ± 0.8
308.15 K, 8100 kPa	871.5 ± 0.9
308.15 K, 10200 kPa	873.3 ± 0.9
308.15 K, 12100 kPa	875 ± 1
308.15 K, 14200 kPa	876.7 ± 1
308.15 K, 16200 kPa	878.3 ± 1.1
308.15 K, 18300 kPa	879.9 ± 1.1
308.15 K, 20200 kPa	881.5 ± 1.2
318.15 K, 100 kPa	855.1 ± 0.7
318.15 K, 2000 kPa	857 ± 0.7
318.15 K, 4000 kPa	858.9 ± 0.8
318.15 K, 6100 kPa	860.9 ± 0.9
318.15 K, 8100 kPa	862.7 ± 0.9
318.15 K, 10100 kPa	864.6 ± 1
318.15 K, 11900 kPa	866.1 ± 1
318.15 K, 14100 kPa	868.1 ± 1.1
318.15 K, 16100 kPa	869.9 ± 1.1
318.15 K, 18000 kPa	871.4 ± 1.2
318.15 K, 20000 kPa	872.8 ± 1.2

CCCCCCCCCl [1-chlorooctane]
Conditions	mass density [kg/m3]
288.15 K, 100 kPa	877.3 ± 1.3
288.15 K, 2000 kPa	878.8 ± 1.3
288.15 K, 4000 kPa	880.2 ± 1.4
288.15 K, 6000 kPa	881.6 ± 1.5
288.15 K, 8000 kPa	883 ± 1.5
288.15 K, 10000 kPa	884.4 ± 1.6
288.15 K, 11900 kPa	885.8 ± 1.7
288.15 K, 13900 kPa	887.1 ± 1.7
288.15 K, 16000 kPa	888.4 ± 1.8
288.15 K, 18000 kPa	889.7 ± 1.8
288.15 K, 20100 kPa	891.2 ± 1.9
298.15 K, 100 kPa	868.8 ± 1.3
298.15 K, 2000 kPa	870.2 ± 1.3
298.15 K, 4100 kPa	871.8 ± 1.4
298.15 K, 6100 kPa	873.3 ± 1.5
298.15 K, 8100 kPa	874.8 ± 1.6
298.15 K, 10000 kPa	876.2 ± 1.6
298.15 K, 12100 kPa	877.8 ± 1.7
298.15 K, 14200 kPa	879.3 ± 1.8
298.15 K, 16300 kPa	880.7 ± 1.8
298.15 K, 18300 kPa	882.1 ± 1.9
298.15 K, 20200 kPa	883.4 ± 2
308.15 K, 100 kPa	861.4 ± 1.3
308.15 K, 2000 kPa	862.8 ± 1.4
308.15 K, 4000 kPa	864.4 ± 1.4
308.15 K, 6000 kPa	865.9 ± 1.5
308.15 K, 7900 kPa	867.5 ± 1.6
308.15 K, 10100 kPa	869.1 ± 1.7
308.15 K, 12000 kPa	870.5 ± 1.7
308.15 K, 14000 kPa	872 ± 1.8
308.15 K, 15900 kPa	873.3 ± 1.9
308.15 K, 18000 kPa	874.8 ± 2
308.15 K, 20000 kPa	876.5 ± 2
318.15 K, 100 kPa	852.9 ± 1.3
318.15 K, 2000 kPa	854.5 ± 1.4
318.15 K, 4000 kPa	856.2 ± 1.5
318.15 K, 6000 kPa	857.9 ± 1.5
318.15 K, 8000 kPa	859.5 ± 1.6
318.15 K, 10000 kPa	861.2 ± 1.7
318.15 K, 12000 kPa	862.8 ± 1.8
318.15 K, 14000 kPa	864.3 ± 1.9
318.15 K, 16000 kPa	865.8 ± 1.9
318.15 K, 18000 kPa	867.3 ± 2
318.15 K, 20100 kPa	868.9 ± 2.1

CC(=O)N(C)C [N,N-dimethylethanamide]
Conditions	mass density [kg/m3]
288.15 K, 100 kPa	945.7 ± 0.5
288.15 K, 2000 kPa	946.7 ± 0.5
288.15 K, 4000 kPa	947.8 ± 0.5
288.15 K, 6000 kPa	949 ± 0.6
288.15 K, 8100 kPa	950.1 ± 0.6
288.15 K, 9900 kPa	951.1 ± 0.6
288.15 K, 12000 kPa	952.2 ± 0.6
288.15 K, 13900 kPa	953.2 ± 0.6
288.15 K, 16000 kPa	954.3 ± 0.6
288.15 K, 18100 kPa	955.4 ± 0.7
288.15 K, 20000 kPa	956.5 ± 0.7
298.15 K, 100 kPa	937 ± 0.5
298.15 K, 2000 kPa	938.1 ± 0.5
298.15 K, 4100 kPa	939.4 ± 0.6
298.15 K, 6100 kPa	940.6 ± 0.6
298.15 K, 8100 kPa	941.8 ± 0.6
298.15 K, 10000 kPa	943 ± 0.6
298.15 K, 12100 kPa	944.1 ± 0.7
298.15 K, 14200 kPa	945.3 ± 0.7
298.15 K, 16300 kPa	946.4 ± 0.7
298.15 K, 18400 kPa	947.5 ± 0.7
298.15 K, 20100 kPa	948.6 ± 0.7
308.15 K, 100 kPa	927.9 ± 0.5
308.15 K, 2000 kPa	929.1 ± 0.6
308.15 K, 4100 kPa	930.4 ± 0.6
308.15 K, 6100 kPa	931.6 ± 0.6
308.15 K, 8100 kPa	932.8 ± 0.6
308.15 K, 10100 kPa	934 ± 0.7
308.15 K, 12100 kPa	935.3 ± 0.7
308.15 K, 14200 kPa	936.5 ± 0.7
308.15 K, 16300 kPa	937.6 ± 0.7
308.15 K, 18200 kPa	938.7 ± 0.8
308.15 K, 20200 kPa	939.9 ± 0.8
318.15 K, 100 kPa	918.7 ± 0.5
318.15 K, 2000 kPa	919.8 ± 0.6
318.15 K, 4000 kPa	921.2 ± 0.6
318.15 K, 6000 kPa	922.5 ± 0.6
318.15 K, 8000 kPa	923.8 ± 0.7
318.15 K, 9900 kPa	925 ± 0.7
318.15 K, 12000 kPa	926.3 ± 0.7
318.15 K, 14000 kPa	927.5 ± 0.8
318.15 K, 16000 kPa	928.7 ± 0.8
318.15 K, 18100 kPa	930 ± 0.8
318.15 K, 20000 kPa	931.3 ± 0.8

CN(C)C=O [dimethylformamide]
Conditions	mass density [kg/m3]
288.15 K, 100 kPa	953.4 ± 0.5
288.15 K, 2100 kPa	954.5 ± 0.5
288.15 K, 4000 kPa	955.6 ± 0.5
288.15 K, 6100 kPa	956.8 ± 0.5
288.15 K, 7900 kPa	957.8 ± 0.5
288.15 K, 9900 kPa	958.9 ± 0.6
288.15 K, 12100 kPa	960.1 ± 0.6
288.15 K, 14000 kPa	961.2 ± 0.6
288.15 K, 16000 kPa	962.2 ± 0.6
288.15 K, 18000 kPa	963.3 ± 0.6
288.15 K, 19800 kPa	964.3 ± 0.6
298.15 K, 100 kPa	943.8 ± 0.5
298.15 K, 2000 kPa	945 ± 0.5
298.15 K, 4100 kPa	946.2 ± 0.5
298.15 K, 6100 kPa	947.4 ± 0.6
298.15 K, 8100 kPa	948.6 ± 0.6
298.15 K, 10100 kPa	949.8 ± 0.6
298.15 K, 12100 kPa	951 ± 0.6
298.15 K, 14100 kPa	952.1 ± 0.6
298.15 K, 16300 kPa	953.3 ± 0.7
298.15 K, 18300 kPa	954.3 ± 0.7
298.15 K, 20100 kPa	955.5 ± 0.7
308.15 K, 100 kPa	935 ± 0.5
308.15 K, 2000 kPa	936.2 ± 0.5
308.15 K, 4100 kPa	937.6 ± 0.6
308.15 K, 6100 kPa	938.9 ± 0.6
308.15 K, 8100 kPa	940 ± 0.6
308.15 K, 10100 kPa	941.2 ± 0.6
308.15 K, 12100 kPa	942.5 ± 0.7
308.15 K, 14300 kPa	943.7 ± 0.7
308.15 K, 16300 kPa	944.9 ± 0.7
308.15 K, 18300 kPa	946 ± 0.7
308.15 K, 20200 kPa	947 ± 0.7
318.15 K, 100 kPa	925.5 ± 0.5
318.15 K, 2100 kPa	926.9 ± 0.6
318.15 K, 4000 kPa	928.3 ± 0.6
318.15 K, 6000 kPa	929.6 ± 0.6
318.15 K, 7900 kPa	930.8 ± 0.6
318.15 K, 10200 kPa	932.2 ± 0.7
318.15 K, 12000 kPa	933.4 ± 0.7
318.15 K, 14000 kPa	934.5 ± 0.7
318.15 K, 16000 kPa	935.8 ± 0.7
318.15 K, 18000 kPa	937 ± 0.8
318.15 K, 20200 kPa	938.1 ± 0.8
